Laboratory results reported in patent US8476305B2, “Therapeutic agent or prophylactic agent for inflammatory bowel disease comprising amino alcohol derivative as active ingredient” (Kyorin Pharmaceutical Co., Ltd., priority 2008, dated 2013).

Tested on: SCID CD4+ CD45RBhigh T cell transfer colitis model
Experiment: SCID CD4+ CD45RBhigh T cell transfer colitis model
Type: in vivo, SCID mice
Conditions: for Total number of leukocytes (cells/μL): blood on the day after final administration; for Total number of leukocytes (cells/μL) / Change ratio of body weight (%) On the fourth week / Change ratio of body weight (%) On the third week: mean ± standard error
Text: SCID CD4^+ CD45RB^high T cell transfer colitis model has been reported as a model resembling to Crohn's disease due to its histopathological characteristics and the produced cytokines (Powrie F et al, Immunity, 1, 553-562, 1994). In addition, this model has also been used for evaluation of a medicine which is used in the treatment of inflammatory bowel disease and its effectiveness has been reported (Liu Z et al., J. Autoimmunl., 29, 187-194, 2007).
C.B-17/Icr-scid/scid Jcl (SCID mice) (female, 8 weeks of age, mouse to be transferred) and BALB/c Cr Slc (BALB/c mice) (female, 8 weeks of age, mouse for transfer cell preparation) were obtained and used in the test. CD4^+ CD45RB^high T cells (naive T cells) prepared from the spleen of BALB/c mice were transferred intraperitoneally into the SCID mice at a concentration of 3×10^5 cells/body, and then colitis was induced by breeding it for 4 weeks. Preparation of the CD4^+ CD45RB^high T cells was carried out in accordance with the method of Uraushihara et al. (J. Immunol., 171, 708-716, 2003) and FACSAriaCell Sorter (Becton Dickinson Japan) was used as a cell separator.
The compound produced in Example 27 (compound 27) was dissolved in distilled water and orally administered at doses of 0.3 mg/kg, 1 mg/kg and 3 mg/kg, once a day for 4 weeks starting on the preceding day of cell transfer. Distilled water alone was administered to the vehicle group. Body weight was determined every day during the administration period. The change ratio (%) of the body weight on the determination day was calculated based on the body weight on the day of the start of administration. On the next day of final administration, blood was collected and the large intestine was extracted. The total number of leukocytes was measured using the collected blood. After fixing the extracted large intestine with formalin, tissue sections were prepared and hematoxylin-eosin staining was carried out. Evaluation was performed in accordance with the scoring system (Uraushihara K et al., J. Immunol., 171, 708-716, 2003). That is, the large intestine was roughly divided into 3 regions (proximal region, middle region and distal region), and scoring was carried out on the 3 layers, which are mucosa, submucosa and muscularis, of each region. By totaling the obtained scores of each region, the value having the highest total score among the three regions was used as the score of the individual. The change ratio of the body weight and the total number of leukocytes were shown by mean±standard error and the pathological score was shown by median.

[1] = 0.3 mg/kg orally once a day for 4 weeks
[2] = 1 mg/kg orally once a day for 4 weeks
[3] = 3 mg/kg orally once a day for 4 weeks
[4] = in comparison with the vehicle group, result in words

Structure (SMILES): C[C@](N)(CO)CCCc1ccc(Sc2cccc(C(F)(F)F)c2)cc1Cl.Cl [Compound 27, (R)-2-amino-5-[2-chloro-4-(3-trifluoromethylphenylthio)phenyl]-2-methylpentan-1-ol hydrochloride]
- Total number of leukocytes (cells/μL) [1]: 2733 ± 561 cells/μL
- Change ratio of body weight (%) On the fourth week [1]: −1.0 ± 2.2%
- Pathological score (0.3 mg/kg orally once a day for 4 weeks, large intestine histology, median): 5
- Change ratio of body weight (%) On the third week [1]: 1.1 ± 1.4 %
- Total number of leukocytes (cells/μL) [2]: 1980 ± 241 cells/μL
- Change ratio of body weight (%) On the fourth week [2]: −1.4 ± 2.0%
- Pathological score (1 mg/kg orally once a day for 4 weeks, large intestine histology, median): 5
- Change ratio of body weight (%) On the third week [2]: 1.5 ± 0.8 %
- Total number of leukocytes (cells/μL) [3]: 1720 ± 327 cells/μL
- Change ratio of body weight (%) On the fourth week [3]: −0.8 ± 2.0 %
- Pathological score (3 mg/kg orally once a day for 4 weeks, large intestine histology, median): 3.5
- Change ratio of body weight (%) On the third week [3]: 0.5 ± 1.2 %
- body weight loss [4]: significantly suppressed
- total number of leukocytes [4]: significantly suppressed
- effect on the SCID CD4+ CD45RBhigh T cell transfer colitis model (overall conclusion in words): shows the suppressive effect
- Pathological score (result in words): suppressive effect was found
